What was measured:
[1] = human, in vivo; cited from earlier work
[2] = tested on: cytochrome P450 2C19 (CYP2C19); design: method as in earlier work; conditions: ref 1 Report nos. Be000021–21 and D6244 KMN036, data on file, AstraZeneca; cited from earlier work
[3] = tested on: Breast Cancer Resistance Protein (BCRP); design: method as in earlier work; conditions: ref 1 Report nos. Be000021–21 and D6244 KMN036, data on file, AstraZeneca; cited from earlier work
CYP2C19 = test: Pharmacogenetic association of genetic variants with dose-normalized PK (linear regression, additive model; random effects meta-analysis); assay type: in vivo, human
Procedure: (§1) Five of the six genetic variants analyzed (CYP2C19*2, CYP2C19*3, CYP2C19*17, UGT1A1*6, ABCG2 421C > A) were single nucleotide polymorphisms while one genetic variant was a tandem repeat (UGT1A1*28.) Genotyping of the variants was performed using a Luminex CYP2C19 assay (for CYP2C19*2, CYP2C19*3 and CYP2C19*17), Taqman assays (for UGT1A1*6 and ABCG2 421C > A), and fragment analysis (for UGT1A1*28).
(§2) Each genetic variant was tested for any association with dose-normalized AUC, AUC0–12 or Cmax, using linear regression under an additive genetic model (i.e. phenotypic response per additional copy of the variant allele, where 0, 1 or 2 copies can be present at each locus). For each PK parameter Bonferroni’s correction was used to control for multiple testing when assessing statistical significance. A p value below 0.008 (p < 0.05 with Bonferoni correction for 6 tests) was considered statistically significant. Given the variation in frequency of the variant alleles, analyses were performed stratified by ethnic group (Asian, White, Black) across the studies. A combined estimate across populations was obtained using random effects meta-analysis to allow for between-population heterogeneity.
(§3) Genotype distributions were tested for deviation from Hardy-Weinberg equilibrium using Chi-squared tests. All pharmacogenetic analyses were performed using either StataSE version 14.1 or R statistical software version 3.2.2.

ABCG2 = test: as above; assay type: in vivo, human
Procedure: as §1, §2, §3

UGT1A1 = test: as above; assay type: in vivo, human
Procedure: as §1, §2, §3

[4] = Safety and tolerability in Study 86 (Asian study); assay type: in vivo, human
Source text: Safety and tolerability findings obtained from Study 86 were summarized and compared descriptively to the safety and tolerability findings from the studies in Western subjects. Additional safety and tolerability data for the Western studies are reported in detail elsewhere and include references.

[5] = tested on: UDP glucuronosyltransferase family 1 member A1 (UGT1A1); design: method as in earlier work; conditions: ref 1 Report nos. Be000021–21 and D6244 KMN036, data on file, AstraZeneca; cited from earlier work
[6] = Dose-exposure proportionality of AUC and Cmax (Power model, scatter plots); assay type: in vivo, human
Procedure: Dose-exposure proportionality for AUC and Cmax was assessed for non-Japanese Asian subjects using data from Study 86, and for the pooled analysis Western group by applying the Power model to data from the pooled analysis: Log(Y) = α + β•log(Dose) + ε, where Y = AUC or Cmax. Intercept and slope estimates (including point estimate, standard error, and 90% confidence interval [CI]) were provided for each parameter, and dose proportionality plots were generated for AUC and Cmax. All statistical analyses were performed using SAS version 9.2.

[7] = CYP219C*2, combined across ethnicities, random effects meta-analysis, N 87
[8] = CYP219C*3, combined analysis, N 42
[9] = CYP219C*17, combined across ethnicities, random effects meta-analysis, N 87
[10] = combined across ethnicities, random effects meta-analysis, N 87
[11] = UGTA1*6, combined analysis, N 42
[12] = UGTA1*28/37, combined across ethnicities, random effects meta-analysis, N 87
[13] = Study 86, Asian healthy subjects, 25, 35 and 50 mg

Beta, per-allele change in DN AUC (CYP2C19; CYP219C*2, Black, N 21): -0.043 log ng.h/mL/mg
Beta, per-allele change in DN AUC(0–12) (CYP2C19; CYP219C*2, Black, N 21): -0.010 log ng.h/mL/mg
Beta, per-allele change in DN Cmax (CYP2C19; CYP219C*2, Black, N 21): -0.110 log ng/mL/mg
Beta, per-allele change in DN AUC (CYP2C19; CYP219C*2, East Asian, N 42): 0.009 log ng.h/mL/mg
Beta, per-allele change in DN AUC(0–12) (CYP2C19; CYP219C*2, East Asian, N 42): 0.011 log ng.h/mL/mg
Beta, per-allele change in DN Cmax (CYP2C19; CYP219C*2, East Asian, N 42): -0.064 log ng/mL/mg
Beta, per-allele change in DN AUC (CYP2C19; CYP219C*2, White, N 24): 0.198 log ng.h/mL/mg
Beta, per-allele change in DN AUC(0–12) (CYP2C19; CYP219C*2, White, N 24): 0.242 log ng.h/mL/mg
Beta, per-allele change in DN Cmax (CYP2C19; CYP219C*2, White, N 24): 0.167 log ng/mL/mg
Beta, per-allele effect on DN AUC (CYP2C19; [7]): 0.042 log ng.h/mL/mg
Beta, per-allele effect on DN AUC(0–12) (CYP2C19; [7]): 0.069 log ng.h/mL/mg
Beta, per-allele effect on DN Cmax (CYP2C19; [7]): -0.010 log ng/mL/mg
Beta, per-allele change in DN AUC (CYP2C19; CYP219C*3, East Asian, N 42): 0.063 log ng.h/mL/mg
Beta, per-allele change in DN AUC(0–12) (CYP2C19; CYP219C*3, East Asian, N 42): 0.096 log ng.h/mL/mg
Beta, per-allele change in DN Cmax (CYP2C19; CYP219C*3, East Asian, N 42): 0.122 log ng/mL/mg
Beta, per-allele effect on DN AUC (CYP2C19; [8]): 0.063 log ng.h/mL/mg
Beta, per-allele effect on DN AUC(0–12) (CYP2C19; [8]): 0.096 log ng.h/mL/mg
Beta, per-allele effect on DN Cmax (CYP2C19; [8]): 0.122 log ng/mL/mg
Beta, per-allele change in DN AUC (CYP2C19; CYP219C*17, Black, N 21): 0.090 log ng.h/mL/mg
Beta, per-allele change in DN AUC(0–12) (CYP2C19; CYP219C*17, Black, N 21): 0.089 log ng.h/mL/mg
Beta, per-allele change in DN Cmax (CYP2C19; CYP219C*17, Black, N 21): 0.086 log ng/mL/mg
Beta, per-allele change in DN AUC (CYP2C19; CYP219C*17, East Asian, N 42): -0.104 log ng.h/mL/mg
Beta, per-allele change in DN AUC(0–12) (CYP2C19; CYP219C*17, East Asian, N 42): -0.139 log ng.h/mL/mg
Beta, per-allele change in DN Cmax (CYP2C19; CYP219C*17, East Asian, N 42): -0.142 log ng/mL/mg
Beta, per-allele change in DN AUC (CYP2C19; CYP219C*17, White, N 24): -0.116 log ng.h/mL/mg
Beta, per-allele change in DN AUC(0–12) (CYP2C19; CYP219C*17, White, N 24): -0.127 log ng.h/mL/mg
Beta, per-allele change in DN Cmax (CYP2C19; CYP219C*17, White, N 24): 0.041 log ng/mL/mg
Beta, per-allele effect on DN AUC (CYP2C19; [9]): 0.004 log ng.h/mL/mg
Beta, per-allele effect on DN AUC(0–12) (CYP2C19; [9]): -0.014 log ng.h/mL/mg
Beta, per-allele effect on DN Cmax (CYP2C19; [9]): 0.037 log ng/mL/mg
Beta, per-allele change in DN AUC (ABCG2; Black, N 21): 0.018 log ng.h/mL/mg
Beta, per-allele change in DN AUC(0–12) (ABCG2; Black, N 21): -0.020 log ng.h/mL/mg
Beta, per-allele change in DN Cmax (ABCG2; Black, N 21): -0.463 log ng/mL/mg
Beta, per-allele change in DN AUC (ABCG2; East Asian, N 42): 0.042 log ng.h/mL/mg
Beta, per-allele change in DN AUC(0–12) (ABCG2; East Asian, N 42): 0.043 log ng.h/mL/mg
Beta, per-allele change in DN Cmax (ABCG2; East Asian, N 42): 0.104 log ng/mL/mg
Beta, per-allele change in DN AUC (ABCG2; White, N 24): -0.116 log ng.h/mL/mg
Beta, per-allele change in DN AUC(0–12) (ABCG2; White, N 24): -0.093 log ng.h/mL/mg
Beta, per-allele change in DN Cmax (ABCG2; White, N 24): -0.119 log ng/mL/mg
Beta, per-allele effect on DN AUC (ABCG2; [10]): 0.028 log ng.h/mL/mg
Beta, per-allele effect on DN AUC(0–12) (ABCG2; [10]): 0.029 log ng.h/mL/mg
Beta, per-allele effect on DN Cmax (ABCG2; [10]): 0.015 log ng/mL/mg
Beta, per-allele change in DN AUC (UGT1A1; UGTA1*6, East Asian, N 42): 0.061 log ng.h/mL/mg
Beta, per-allele change in DN Cmax (UGT1A1; UGTA1*6, East Asian, N 42): 0.073 log ng/mL/mg
Beta, per-allele effect on DN AUC (UGT1A1; [11]): 0.061 log ng.h/mL/mg
Beta, per-allele effect on DN Cmax (UGT1A1; [11]): 0.073 log ng/mL/mg
Beta, per-allele change in DN AUC (UGT1A1; UGTA1*28/37, Black, N 21): 0.052 log ng.h/mL/mg
Beta, per-allele change in DN Cmax (UGT1A1; UGTA1*28/37, Black, N 21): 0.048 log ng/mL/mg
Beta, per-allele change in DN AUC (UGT1A1; UGTA1*28/37, East Asian, N 42): -0.153 log ng.h/mL/mg
Beta, per-allele change in DN Cmax (UGT1A1; UGTA1*28/37, East Asian, N 42): -0.152 log ng/mL/mg
Beta, per-allele change in DN AUC (UGT1A1; UGTA1*28/37, White, N 24): -0.033 log ng.h/mL/mg
Beta, per-allele change in DN Cmax (UGT1A1; UGTA1*28/37, White, N 24): 0.190 log ng/mL/mg
Beta, per-allele effect on DN AUC (UGT1A1; [12]): -0.055 log ng.h/mL/mg
Beta, per-allele effect on DN Cmax (UGT1A1; [12]): 0.016 log ng/mL/mg
dose-exposure proportionality (visual assessment of scatter plots, AUC and Cmax) ([6]; Western group, single doses of 25 to 75 mg): Approximate dose proportionality
dose-exposure proportionality (visual assessment of scatter plots, AUC and Cmax) ([6]; non-Japanese Asian group, 25 to 50 mg): approximate dose proportionality
SMILES: Cn1cnc2c(F)c(Nc3ccc(Br)cc3Cl)c(C(=O)NOCCO)cc21 [selumetinib, Selumetinib]
serious AEs [1]: no serious AEs
substrate of enzyme [2]: substrate
substrate of transporter protein [3]: substrate
number of AEs reported ([4]; Study 86, Asian healthy subjects): 21
AE leading to discontinuation of selumetinib [4, 13]: no AE led to the discontinuation
serious adverse event [4, 13]: no subject experienced a serious adverse event
safety or tolerability concerns ([4]; Study 86, Asian healthy subjects, any dose level (25, 35 and 50 mg)): no safety or tolerability concerns
number of AEs deemed related to selumetinib by the Investigator ([4]; Study 86, of the 21 AEs reported): 14
substrate of enzyme [5]: substrate

From paper PMC5423974 (European Journal of Clinical Pharmacology, 2017)
